PMC5635289, “Differential Effects of Angelicin Analogues on NF-κB Activity and IL-8 Gene Expression in Cystic Fibrosis IB3-1 Cells” (Mediators of Inflammation, 2017)

Key:
[1] = target: T1, NF-κB p50 (Homo sapiens, UniProt P19838); experiment: EMSA, inhibition of NF-κB/DNA interactions; format: binding; settings: NF-κB p50 and 32P-labeled NF-κB oligonucleotide, MIC = minimal inhibitory concentration, 12.5 μM was the lowest concentration used
T1 construct: This assay was performed using purified NF-κB p50; purchased Promega
T1 sequence (P19838 1-433 limits assumed): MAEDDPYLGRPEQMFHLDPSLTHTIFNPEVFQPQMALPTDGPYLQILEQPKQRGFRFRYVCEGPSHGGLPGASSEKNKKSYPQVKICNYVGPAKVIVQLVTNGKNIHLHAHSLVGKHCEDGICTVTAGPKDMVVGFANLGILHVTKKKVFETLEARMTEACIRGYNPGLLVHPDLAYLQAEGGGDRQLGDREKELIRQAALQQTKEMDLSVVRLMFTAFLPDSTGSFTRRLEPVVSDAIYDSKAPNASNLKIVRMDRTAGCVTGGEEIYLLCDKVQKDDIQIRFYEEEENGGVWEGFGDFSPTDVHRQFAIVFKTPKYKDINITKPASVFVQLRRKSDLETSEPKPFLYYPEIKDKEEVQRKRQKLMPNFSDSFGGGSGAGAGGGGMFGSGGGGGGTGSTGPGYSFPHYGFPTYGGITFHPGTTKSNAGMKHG
Experimental: Electrophoretic mobility shift assays were performed using double-stranded ^32P-labeled oligonucleotides as target DNA. Binding reactions were set up as previously described in binding buffer (10% glycerol, 0.05% NP-40, 10 mM Tris-HCl pH 7.5, 50 mM NaCl, 0.5 mM DTT, and 10 mM MgCl2), in the presence of 0.1 μl/20 μl of NF-κB p50 (50 gsu) (Promega, Madison, WI, USA) and 0.25 ng of labeled oligonucleotide, in a total volume of 20 μl. After 30 min binding at room temperature, samples were electrophoresed at constant voltage (200 V for 30 min) through a low ionic strength (0.25 TBE buffer) (1 TBE/40.089 M Tris-borate, 0.002 M EDTA) on 6% polyacrylamide gels until the tracking dye (bromophenol blue) reached the bottom of a 16 cm slab. Gels were dried and exposed for autoradiography with intensifying screens at […]. In these experiments, DNA/protein complexes migrate through the gel with slower efficiency. In studies on the inhibitors of protein/DNA interactions, addition of the reagents was as follows: (i) nuclear factors, (ii) active principles, (iii) binding buffer, and (iv) labeled oligonucleotides mimicking the binding sites for TF to be modulated. The nucleotide sequence of double-stranded target DNA utilized in these experiments was 5′-CGC TGG GGA CTT TCC ACG G-3′ (sense strand, NF-κB). The synthetic oligonucleotides utilized in this study were purchased from Sigma Genosys (Sigma Genosys, Cambs, UK). To calculate the effective concentrations, three different autoradiograms obtained from different time exposures were scanned and compared to control EMSA performed without addition of angelicin analogues (two independent experiments were performed).
The effects of TMA derivatives on NF-κB- (nuclear factor-kappaB-) mediated induction of proinflammatory genes was verified first in vitro by electrophoretic mobility shift assay (EMSA) with the aim to verify and quantify the possible inhibition of NF-κB/DNA interactions. This assay was performed using purified NF-κB p50 and ^32P-labeled target NF-κB double-stranded oligonucleotide mimicking the NF-κB consensus sequence present within the IL-8 gene promoter.

[2] = test system: IB3-1 cells; experiment: Cell proliferation assay on IB3-1 cells; format: cell-based; settings: Homo sapiens, cell number/ml after 48 h of treatment
Experimental: Monolayers of 60% confluent IB3-1 cells were seeded in 24- or 12-well plates in LHC-8 medium in the presence of 5% FBS. After 24 h, TMA derivatives were added at serial dilutions and incubated for further 2-3 days. The effects of compounds (TMA derivatives) on the cell proliferation were analyzed as elsewhere described. A first analysis was performed with serial dilutions to obtain 50 μM, 200 μM, and 800 μM solutions. In order to determine IC50 values, the following concentrations were used 12.5, 25, 50, 100, 200, and 800 μM. In order to prepare the cells for counting, they were washed with PBS 1X and detached with trypsin/EDTA. Cells were suspended in physiological solution and counted with a Z2 Coulter Counter (Coulter Electronics, Hialeah, FL, USA). The cell number/ml was determined as IC50 after 2 days of culture, when untreated cells are in log phase of cell growth.
In order to obtain preliminary information on the biological properties of TMA derivatives, their effects on cell growth were examined on IB3-1 cell line, excellent biological model to study new potential anti-inflammatory molecules. The use of this cell line to study the expression of proinflammatory molecules under a variety of stimuli is well established. Monolayers of 60% confluent IB3-1 cells were seeded in 12-well plate in LHC-8 medium with 5% FBS. After 24 h, compounds were added at different concentrations and the cell number/ml was determined after further 48 h of culture.

[3] = test system: IL-8 mRNA; experiment: RT-qPCR quantification of IL-8 mRNA in TNF-α-induced IB3-1 cells; format: cell-based, human; settings: for inhibition at 1 µM / inhibition at 10 µM: Homo sapiens, IB3-1, 24 h, TNF-α-induced IB3-1 cells, RT-qPCR, na = not active at the used concentrations; for inhibition at 1 µM: 1 μM compound; for inhibition at 10 µM: 10 μM compound
Experimental: Monolayers of 60% confluent IB3-1 cells were seeded in 6- or 12-well plates in LHC-8 medium in the presence of 5% FBS. After 24 h, pure derivatives were added, 5 h before stimulation with TNF-α 80 ng/ml (ORF Genetics, Kopavogur, Iceland), and incubated for a further 24 h. Total RNA was extracted using TRIzol Reagent (Sigma-Aldrich, St. Louis, MO) following the manufacturer's instructions. Reverse transcription (RT) was performed using Reverse Transcription System kit (Promega, Madison, WI): 1 μg of total RNA was reverse transcribed in the presence of 5 mM MgCl2, 1X reverse transcription buffer (10 mM Tris-HCl, 50 mM KCl, and 0.1% Triton X-100), 1 mM each dNTPs, 20 U recombinant Rnasin Ribonuclease Inhibitor, 15 U AMV Reverse Transcriptase, and 0.5 μg oligo(dT)15 primers in a total volume of 20 μl for 10 min at 70°C and 60 min at 42°C. The resulting cDNA was quantified by relative quantitative real-time PCR (real-time qPCR). For real-time qPCR, 1 μl of cDNA was used for each SYBR Green reaction to quantify the relative expression of IL-8. Each 25 μl of total reaction volume contained 1 μl of cDNA, 10 pmol of primers, 1 iQTM SYBR Green Supermix (Bio-Rad Laboratories Inc., Hercules, CA). Real-time PCRs were performed for a total of 40 cycles (denaturation, 95°C for 10 s; annealing, 68°C for 30 s for IL-8, 65°C for 30 s for IL-6; elongation, 72°C for 60 s) using an iCycler IQ5 (Bio-Rad Laboratories Inc., Hercules, CA). Primer sequences were as follows: IL-8 forward: 5′-GTGCAGTTTTGCCAAGGAGT-3′ and IL-8 reverse: 5′-TTATGAATTCTCAGCCCTCTTCAAAAACTTCTC-3′. The relative proportions of each amplified template were determined utilizing the threshold cycle (CT) value for each performed PCR. The DDCt method was used to compare gene expression data. Each sample was quantified in duplicate. Changes in mRNA expression level were calculated following normalization with the GAPDH calibrator gene (housekeeping gene) and expressed as fold change over untreated samples [24]. Duplicates of negative controls (no template cDNA) were also run with every experimental plate to assess specificity and indicate potential contamination.
With the aim to study the effective anti-inflammatory properties of these new psoralen derivatives, we decided to further characterize the TMA derivatives for their potential activities on the expression of IL-8 gene, known to be involved in the lung inflammatory process in CF. […] More specifically, we were first interested in identifying compounds with low antiproliferative activity, but effective in downmodulating inflammatory gene expression without achieving a full suppression of these genes. We therefore employed IB3-1 cystic fibrosis cells, incubated for 5 h with two concentrations (1 μM and 10 μM) of selected compounds, and then treated with TNF-α ([…]). In the IB3-1 cystic fibrosis cellular model, NF-κB-dependent genes, including the gene encoding for the proinflammatory protein IL-8, generally are activated following infection with P. aeruginosa or treatment with TNF-α or IL-1β [26, 28, 31]. This feature is very important in the pathophysiology of CF, since several clinical complications are caused by exacerbation of this inflammatory response. After 1 day of incubation, cellular RNA was isolated for RT-qPCR analysis. All the TMA analogues found to be active in inhibiting NF-κB/DNA interactions were analyzed for their effects on inhibition of TNF-α-induced accumulation of IL-8 mRNA.

Compound	Inhibition of NF-κB/DNA complex (MIC) [1]	IC50 [2] [µM]	inhibition at 1 µM [3] [%]	inhibition at 10 µM [3] [%]	Inhibition of IL-8 expression (range given) ([3]; IB3-1 cells, low concentrations (1–10 μM), concentration not specified per value)
O=c1cc(CO)c2ccc3sccc3c2o1 [Compound 16]	25 to 50 µM	> 800	18	21	
Cc1cc(=O)[nH]c2c1cc(C)c1occ(C)c12 [Compound 17]	> 100 µM	193			
Cc1cc(=O)[nH]c2c1cc(C)c1oc(CO)c(C)c12 [Compound 18]		> 800			
Cc1cc(=O)n(C)c2c1cc(C)c1occ(C)c12 [Compound 19]		131			
Cc1cc(=O)oc2c3c(ccc12)OC(C)C3 (centres unmarked) [Compound 20]		154			
COC1Cc2c(ccc3c(C)cc(=O)oc23)O1 (centres unmarked) [Compound 21]		678			
Cc1cc(=O)oc2c3c(ccc12)OC(CBr)C3 (centres unmarked) [Compound 22]	> 100 µM	180			
Cc1oc2c(C)cc3c(C)cc(=O)oc3c2c1CO [Compound 23]		452	3	11	
Cc1cc2c(CO)cc(=O)oc2c2cc(CO)oc12 [Compound 24]	> 100 µM	197			
Cc1cc2c(o1)c(C)cc1c(CO)cc(=O)oc12 [Compound 25]	25 to 50 µM	551			
Cc1cc(=O)oc2c1ccc1oc(CN)cc12 [Compound 26]	50 to 100 µM	90.8	55	83	52–83%
Cc1oc2c(cc(C)c3occ(C)c32)c(=O)c1C [Compound 27]	<12.5 (^∗) μM	> 800	16		
Cc1c(C)c2cc(C)c3occc3c2oc1=O [Compound 28]	12.5 to 25 µM	> 800	21	36	
Cc1cc(=O)oc2c1cc(C)c1[nH]nnc12 [Compound 31]	25 µM	> 800			
Cc1cc2c(CO)cc(=O)oc2cc1O [Compound 37]	12.5 to 25 µM	> 800			
